Assay results taken from US20240294533A1, “2-(HET)ARYL-SUBSTITUTED CONDENSED HETEROCYCLE DERIVATIVES AS PEST CONTROL AGENTS” (Bayer Aktiengesellschaft, priority 2021, published 2024).
Read-outs that look alike come from different tables or passages of the source.

Key:
Diabrotica balteata = Diabrotica balteata spray test; assay type: in vivo; settings: wheat grains, after 7 days; for pest or weed control at 100 g/ha / pest or weed control at 125 g/ha: Diabrotica balteata, 168 h, read-out: efficacy; for pest or weed control at 125 g/ha: 125 g/ha (=40 μg/cavity)
Description: Diabrotica balteata—Spray Test Solvent: 78 parts by weight of acetone • • 1.5 parts by weight of dimethylformamide Emulsifier: alkylaryl polyglycol ether An appropriate active ingredient formulation is produced by dissolving 1 part by weight of active ingredient with the stated parts by weight of solvent and making the solution up to the desired concentration with water containing an emulsifier concentration of 1000 ppm. Further test concentrations are produced by diluting the formulation with emulsifier-containing water. Pre-swollen wheat grains (Triticum aestivum) are incubated in a multiwell plate filled with agar and a little water for one day (5 seed grains per cavity). The germinated wheat grains are sprayed with an active ingredient formulation of the desired concentration. Subsequently, each cavity is infected with 10-20 beetle larvae of Diabrotica balteata. After 7 days, efficacy in % is determined. 100% means that all wheat plants have grown as in the untreated, uninfected control; 0% means that no wheat plant has grown.

Meloidogyne incognita = Meloidogyne incognita test; assay type: in vivo; settings: lettuce, gall formation after 14 days; for pest or weed control at 20 ppm: Meloidogyne incognita, 336 h, read-out: nematicidal efficacy
Description: Meloidogyne incognita Test Solvent: 125.0 parts by weight of acetone An appropriate active ingredient formulation is produced by mixing 1 part by weight of active ingredient with the stated amount of solvent and diluting the concentrate to the desired concentration with water. Vessels are filled with sand, active ingredient solution, an egg/larvae suspension of the southern root-knot nematode (Meloidogyne incognita) and lettuce seeds. The lettuce seeds germinate and the plants develop. The galls develop on the roots. After 14 days, the nematicidal efficacy in % is determined by the formation of galls. 100% means that no galls were found; 0% means that the number of galls on the treated plants corresponds to the untreated control.

Spodoptera frugiperda = Spodoptera frugiperda spray test (maize leaf discs); assay type: in vivo; settings: after 7 days; for pest or weed control at 100 g/ha: Spodoptera frugiperda, foliar, 168 h, read-out: efficacy
Description: Spodoptera Frusiperda—Spray Test Solvent: 78.0 parts by weight of acetone • • 1.5 parts by weight of dimethylformamide Emulsifier: alkylaryl polyglycol ether An appropriate active ingredient formulation is produced by dissolving 1 part by weight of active ingredient with the stated parts by weight of solvent and making the solution up to the desired concentration with water containing an emulsifier concentration of 1000 ppm. Further test concentrations are produced by diluting the formulation with emulsifier-containing water. Leaf discs of maize (Zea mays) are sprayed with an active ingredient formulation of the desired concentration and, after drying, populated with caterpillars of the fall armyworm (Spodoptera frugiperda). After 7 days, efficacy in % is determined. 100% means that all the caterpillars have been killed; 0% means that no caterpillar has been killed.

[1] = log P by HPLC on reversed-phase column (C18); assay type: physicochemical; settings: LC-UV
Procedure: log P Values The log P values were determined according to EEC Directive 79/831 Annex V.A8 by HPLC (high-performance liquid chromatography) on a reversed-phase column (C18) using the following methods: ^[a] […] Calibration was carried out using straight-chain alkan-2-ones (having 3 to 16 carbon atoms) with known log P values. The values between successive alkanones are determined by linear regression.

Nezara viridula [2] = assay: Nezara viridula spray test (plants sprayed, then infected); assay type: in vivo; settings: 500 g/ha, barley plants, after 4 days
Description: (§1) Nezara viridula—Spray Test Solvent: 78.0 parts by weight of acetone • • 1.5 parts by weight of dimethylformamide Emulsifier: alkylaryl polyglycol ether An appropriate active ingredient formulation is produced by dissolving 1 part by weight of active ingredient with the stated parts by weight of solvent and making the solution up to the desired concentration with water containing an emulsifier concentration of 1000 ppm. Further test concentrations are produced by diluting the formulation with emulsifier-containing water. Barley plants (Hordeum vulgare) are sprayed with an active ingredient formulation of the desired concentration and are infected with larvae of the Southern green shield bug (Nezara viridula). After 4 days, efficacy in % is determined. 100% means that all of the shield bugs have been killed; 0% means that none of the shield bugs have been killed.

Nezara viridula [3] = assay: Nezara viridula spray test (infected barley plants sprayed); assay type: in vivo; settings: 100 g ai/ha, after 4 days
Description: as §1, with “52.5” for “78.0”, “7” for “• 1.5”, “water. If the addition of ammonium salts or/and penetrants is required, these are each added in a concentration of 1000 ppm to the formulation solution.” for “water.”, “vulgare) infected with larvae of the Southern green shield bug (Nezara viridula)” for “vulgare)”, “concentration.” for “concentration and are infected with larvae of the Southern green shield bug (Nezara viridula).”

Myzus persicae = Myzus persicae oral test; assay type: in vivo; settings: 4 ppm, after 5 days
Procedure: Myzus persicae—Oral Test Solvent: 100 parts by weight of acetone An appropriate active ingredient formulation is produced by dissolving 1 part by weight of active ingredient with the specified parts by weight of solvent and making the solution up to the desired concentration with water. 50 μl of the active ingredient formulation is transferred into microtitre plates and made up to a final volume of 200 μl with 150 μl of IPL41 insect medium (33%+15% sugar). Subsequently, the plates are sealed with parafilm, which a mixed population of green peach aphids (Myzus persicae) within a second microtitre plate is able to puncture and imbibe the solution. After 5 days, efficacy in % is determined. 100% means that all the aphids have been killed; 0% means that no aphids have been killed.

[4] = neutral range, ammonium acetate/acetonitrile, read-out: log P (neutral)

Compound	pest or weed control at 100 g/ha (Diabrotica balteata; 100 g/ha (=32 μg/cavity)) [%]	pest or weed control at 20 ppm (Meloidogyne incognita) [%]	pest or weed control at 100 g/ha (Spodoptera frugiperda) [%]	also measured
CCS(=O)(=O)c1ccc(-n2ncn(-c3cccc(F)c3)c2=O)nc1-c1nc2cc(C(F)(F)C(F)(F)F)cnc2n1C [Example I-16]	100	100	100	–
CCS(=O)(=O)c1ccc(-n2ncn(-c3ccc(I)cc3)c2=O)nc1-c1nc2cc(C(F)(F)C(F)(F)F)nnc2n1C [Example I-09]	100	90	100	–
CCSc1ccc(F)nc1-c1nc2cc(C(F)(F)C(F)(F)F)cnc2n1C [2-(3-Ethylsulfanyl-6-fluoro-2-pyridyl)-3-methyl-6-(1,1,2,2,2-pentafluoroethyl)imidazo[4,5-b]pyridine]	–	–	–	chromatographic logP ([1]; acidic range, formic acid/acetonitrile, read-out: log P (acidic)): 4.05
CCS(=O)(=O)c1ccc(-n2ncn(-c3ccc(F)cc3)c2=O)nc1-c1nc2cc(C(F)(F)C(F)(F)F)nnc2n1C [Example I-10]	100	100	100	–
CCS(=O)(=O)c1ccc(-n2ncn(-c3ccc(/C=N/OC)cc3)c2=O)nc1-c1nc2cc(C(F)(F)C(F)(F)F)cnc2n1C [Example I-24]	100	–	100	–
CCS(=O)(=O)c1ccc(-n2ncn(-c3cccc(Cl)c3)c2=O)nc1-c1nc2cc(C(F)(F)C(F)(F)F)cnc2n1C [Example I-19]	100	–	100	–
CCS(=O)(=O)c1ccc(-n2ncn(-c3cccc(C4(C#N)CC4)c3)c2=O)nc1-c1nc2cc(C(F)(F)C(F)(F)F)cnc2n1C [Example I-04]	100	–	100	efficacy (Nezara viridula [2]): 100%
CCS(=O)(=O)c1ccc(-n2ncn(-c3cccc(Cl)c3)c2=O)nc1-c1nc2cc(C(F)(F)C(F)(F)F)nnc2n1C [Example I-13]	100	–	100	efficacy (Nezara viridula [3]): 100%
CCS(=O)(=O)c1ccc(-n2ncn(-c3ccc(C#N)c(Cl)c3)c2=O)nc1-c1nc2cc(C(F)(F)C(F)(F)F)nnc2n1C [Example I-05]	100	100	100	–
CCS(=O)(=O)c1ccc(-n2ncn(-c3ccc(Cl)c(C#N)c3)c2=O)nc1-c1nc2cc(C(F)(F)C(F)(F)F)cnc2n1C [Example I-07]	100	100	100	efficacy (Nezara viridula [2]): 100%
CCS(=O)(=O)c1ccc(-n2ncn(-c3cccc(I)c3)c2=O)nc1-c1nc2cc(C(F)(F)C(F)(F)F)cnc2n1C [Example I-18]	100	–	100	efficacy (Nezara viridula [3]): 90%
CCS(=O)(=O)c1ccc(-n2ncn(-c3ccc(C#N)c(Cl)c3)c2=O)nc1-c1nc2cc(C(F)(F)C(F)(F)F)cnc2n1C [Example I-17]	100	90	100	efficacy (Myzus persicae): 90%
CCS(=O)(=O)c1ccc(F)nc1-c1nc2cc(C(F)(F)C(F)(F)F)cnc2n1C [2-(3-Ethylsulfonyl-6-fluoro-2-pyridyl)-3-methyl-6-(1,1,2,2,2-pentafluoroethyl)imidazo[4,5-b]pyridine]	–	–	–	chromatographic logP [1, 4]: 3.33
CCS(=O)(=O)c1ccc(-n2ncn(-c3cccc(C4(C#N)CC4)c3)c2=O)nc1-c1nc2cc(C(F)(F)C(F)(F)F)nnc2n1C [Example I-01]	100	–	100	–
CCS(=O)(=O)c1ccc(-n2ncn(-c3ccc(I)cc3)c2=O)nc1-c1nc2cc(C(F)(F)C(F)(F)F)cnc2n1C [Example I-20]	–	90	100	pest or weed control at 125 g/ha (Diabrotica balteata): 100%; efficacy (Nezara viridula [3]): 100%
Cn1c(-c2nc(F)ccc2F)nc2cc(C(F)(F)C(F)(F)F)cnc21 [2-(3,6-Difluoro-2-pyridyl)-3-methyl-6-(1,1,2,2,2-pentafluoroethyl)imidazo[4,5-b]pyridine]	–	–	–	chromatographic logP [1, 4]: 3.3
CCS(=O)(=O)c1ccc(-n2ncn(-c3ccc(Cl)c(C#N)c3)c2=O)nc1-c1nc2cc(C(F)(F)C(F)(F)F)nnc2n1C [Example I-08]	100	100	100	–
CCS(=O)(=O)c1ccc(-n2ncn(-c3cccc(Br)c3)c2=O)nc1-c1nc2cc(C(F)(F)C(F)(F)F)nnc2n1C [Example I-11]	100	100	–	efficacy (Spodoptera frugiperda; 100 g/ha): 100%; efficacy (Nezara viridula [3]): 90%
CCS(=O)(=O)c1ccc(-n2ncn(-c3ccc(C4(C#N)CC4)cc3)c2=O)nc1-c1nc2cc(C(F)(F)C(F)(F)F)nnc2n1C [Example I-21]	–	90	100	pest or weed control at 125 g/ha (Diabrotica balteata): 100%; efficacy (Myzus persicae): 100%
CCS(=O)(=O)c1ccc(-n2ncn(-c3cccc(Br)c3)c2=O)nc1-c1nc2cc(C(F)(F)C(F)(F)F)nnc2n1C [Example I-15]	–	–	100	efficacy (Diabrotica balteata; 100 g/ha (=32 μg/cavity)): 100%; nematicidal efficacy (Meloidogyne incognita; 20 ppm): 100%; efficacy (Nezara viridula [3]): 100%
